In publication PMC11530130, “Peripherally restricted PICK1 inhibitor mPD5 ameliorates pain behaviors in murine inflammatory and neuropathic pain models” (JCI Insight, 2024):
Several values for one entry are separate records, joined by “and”; a condition that tells them apart may be missing. Identical values can stand only once.

Legend:
naive mice [1] = experiment: Male fertility test; assay type: in vivo, mouse; design: Male fertility test, individual values (Fig 6E) / male fertility test, BB value (Fig S8C) / male fertility test, AB value (Fig S8C): unit not given here
Description: Mice were 10 weeks old at the beginning of the experiment and acclimatized to the animal facility for two weeks after arrival. Male mice were randomized into two groups (n = 8/group) and weighed and injected s.c. once daily (between 3 pm and 4 pm) for 14 days with sterile PBS or 10 μmol/kg mPD5 (diluted in sterile PBS and pH adjusted to 7.4). After 14 days of dosing, the males were paired with female mice in fresh cages, and the number of pubs counted for 35 days (males were removed from the breeding cages after 14 days). Following the 14 days mating period, males were sacrificed by cervical dislocation caudae epidymidis were removed and weighed. Caudae epidymidis were cut into smaller pieces in 2 mL PBS (37 °C) and incubated (37 °C, 5% CO2) for 15 min. Following incubation, the mix was swirled gently, and 0.5 mL of the liquid was transferred to room tempered PBS to achieve a final volume of 1 mL.
Subsequently, sperm count was determined by transferring 50 µL of the sample to a hemocytometer, and each sample was determined in duplicate by an experimenter blinded to drug treatment. Following criteria were assessed: mobility (forward and circular), local tail mobility and total number. Females were weighed on a regular basis from removal of the males […]
Unless otherwise stated, all data were analysed using GraphPad Prism 9.4.1. and presented as mean +-SEM with the significance level set to p < 0.05. For locomotion and elevated plus maze, Ethovision XT 13 (Noldus) was used to track the distance travelled by each animal. For within group analysis (i.e., von Frey experiments), two-way ANOVA followed by Dunnett’s post hoc test was used. For between group analysis of multiple time points (i.e., locomotion experiments), two-way ANOVA was used without post hoc test due to lack of treatment significance in the ANOVA test. For the limb use experiment, data pre versus post treatment was analysed with a Kruskal Wallis test due to the non-parametric nature of the data. When analysing histograms of three groups or more (i.e., marble burying and elevated plus maze),

naive mice [2] = experiment: Open field locomotion; assay type: in vivo, mouse; design: total locomotion in open field, individual mice: unit not given here; settings: for open field locomotion per 5min bin (Fig S8A): individual animals, listed as myr
Experimental: Concentration 10 µmol/kg: Wild type mice were habituated to the experimental room for a minimum of 60 min before initiation of the experiment. Female and male mice were run on separate days. Mice were injected s.c. with 10 μmol/kg mPD5 or sterile PBS directly before being placed in open field boxes (40 cm x 40 cm x 80 cm) for 2.5 hours with up to four mice in boxes at any one time. A video camera placed above the open field recorded the animals’ behaviour and Ethovision XT 13 (Noldus) was used to track the distance travelled by the […]
Concentration 30 + 50 µmol/kg: Animals were habituated to the experimental room for a minimum of 60 min before initiation of the experiment. At initiation of experiment, the mice (all male) were injected subcutaneously (s.c.) with mPD5 (30 or 50 μmol/kg, pH adjusted to approximately 7 with 5 M NaOH) or 0.9 % saline (B.Braun, Germany) and left in their home cage for 60 min. After exactly one hour, the mice were placed in an open field (40 cm x 40 cm x 80 cm) for 60 min. A video camera placed above the open field recorded the animals’ […]
animal. The experiment was run in cohort with Figure 2B+C of (9)). […]

[3] = males s.c. 10 μmol/kg, once daily for 14 days
[4] = s.c. 10 μmol/kg, once daily for 14 days

With `CCCCCCCCCCCCCC(=O)N(CCOCCOCCC(=O)N[C@@H](Cc1c[nH]cn1)C(=O)N[C@@H](Cc1c[nH]c2ccccc12)C(=O)N[C@@H](CC(C)C)C(=O)N[C@@H](CCCCN)C(=O)N[C@H](C(=O)O)C(C)C)CCOCCOCCC(=O)N[C@@H](Cc1c[nH]cn1)C(=O)N[C@@H](Cc1c[nH]c2ccccc12)C(=O)N[C@@H](CC(C)C)C(=O)N[C@@H](CCCCN)C(=O)N[C@H](C(=O)O)C(C)C` [mPD5, myristoyl-NPEG4-(HWLKV)2] as the compound, how does the “male fertility test, AB value (Fig S8C)” value (naive mice [1]; AB, individual animals) read?
The value was 28 (3×) and 27 and 26 and 28.5 and 29.

What about the “male fertility test, BB value (Fig S8C)” value (naive mice [1]; BB, individual animals) of the same compound?
Its value is 41.5 and 43 and 45 (2×) and 41 (2×) and 44.

And the “male fertility test, cumulative value by day (Fig S8B)” value (“male fertility test, cumulative value” for short) (naive mice [1]; Day 19)?
Its value is 0.

What about the “male fertility test, cumulative value” value (naive mice [1]; Day 20) of the same compound?
Its value is 17.

What about the “male fertility test, cumulative value” value (naive mice [1]; Day 21) of the same compound?
The value was 27.

And the “male fertility test, cumulative value” value (naive mice [1]; Day 22)?
The value was 56.

What about the “male fertility test, cumulative value” value (naive mice [1]; Day 23) of the same compound?
Its value is 64.

What about the “male fertility test, cumulative value” value (naive mice [1]; Day 24) of the same compound?
Its value is 64.

What about the “male fertility test, cumulative value” value (naive mice [1]; Day 25) of the same compound?
The value was 64.

And the “male fertility test, cumulative value” value (naive mice [1]; Day 26)?
The value was 64.

What about the “male fertility test, cumulative value” value (naive mice [1]; Day 27) of the same compound?
The value was 64.

And the “male fertility test, cumulative value” value (naive mice [1]; Day 28)?
Its value is 64.

What about the “male fertility test, cumulative value” value (naive mice [1]; Day29) of the same compound?
Its value is 64.

What about the “male fertility test, cumulative value” value (naive mice [1]; Day 30) of the same compound?
Its value is 64.

What about the “male fertility test, cumulative value” value (naive mice [1]; Day 31) of the same compound?
Its value is 64.

And the “male fertility test, cumulative value” value (naive mice [1]; Day 32)?
Its value is 64.

And the “male fertility test, cumulative value” value (naive mice [1]; Day 33)?
Its value is 64.

And the “male fertility test, cumulative value” value (naive mice [1]; Day 34)?
The value was 64.

And the “male fertility test, cumulative value” value (naive mice [1]; Day 35)?
Its value is 64.

And the “body weight drop per pup following birth” value (naive mice [1]; [3])?
Its value is “the same for both groups”.

What about the “number of pups per litter vs vehicle” value (naive mice [1]; [3]) of the same compound?
Its value is “same between groups”.

And the “weight gain of females mated with treated male mice” value (naive mice [1]; [3])?
Its value is “significantly higher”.

And the “Male fertility test, individual values (Fig 6E)” value (naive mice [1]; naive mice)?
The value was 8 and 9 and 10.

What about the “sperm count of the males vs vehicle” value (naive mice [1]; [4]) of the same compound?
Its value is “same between groups”.

What about the “sperm count, individual mice” value (naive mice [1]; [4]) of the same compound?
Its value is 15062500 and 13125000 and 14250000 and 7750000 and 16000000 and 10750000.

And the “overall locomotion in open field” value (naive mice [2]; both sexes, s.c. 10 μmol/kg, 150 minutes)?
The value was “overall locomotion was the same between groups”.

And the “open field locomotion per 5min bin (Fig S8A)” value (naive mice [2]; myr 30 sc, time bin 5)?
The value was 9.792 and 20.2101 and 12.2703 and 19.016 and 30.6965 and 16.9458.

And the “open field locomotion per 5min bin (Fig S8A)” value (naive mice [2]; myr 30 sc, time bin 10)?
The value was 7.961 and 14.7148 and 7.884 and 18.3273.

What about the “open field locomotion per 5min bin (Fig S8A)” value (naive mice [2]; myr 30 sc, time bin 35) of the same compound?
Its value is 5.715 and 10.7688 and 1.1088 and 12.4123 and 20.664 and 5.688.

And the “open field locomotion per 5min bin (Fig S8A)” value (naive mice [2]; myr 30 sc, time bin 40)?
The value was 11.1707 and 7.0291 and 1.7211 and 14.3893 and 18.0978 and 1.491.

What about the “open field locomotion per 5min bin (Fig S8A)” value (naive mice [2]; myr 30 sc, time bin 45) of the same compound?
The value was 1.78 and 8.087 and 5.349 and 15.4878 and 14.3776 and 5.135.

What about the “open field locomotion per 5min bin (Fig S8A)” value (naive mice [2]; myr 30 sc, time bin 50) of the same compound?
The value was 0.4107 and 5.0774 and 0.9705 and 10.9758 and 18.1434 and 3.971.

What about the “open field locomotion per 5min bin (Fig S8A)” value (naive mice [2]; myr 30 sc, time bin 55) of the same compound?
The value was 2.375 and 2.374 and 0.2143 and 12.0295 and 18.4127 and 1.9358.

What about the “open field locomotion per 5min bin (Fig S8A)” value (naive mice [2]; myr 30 sc, time bin 60) of the same compound?
The value was 5.982 and 3.075 and 0.4734 and 12.4806 and 21.7634 and 4.464.

And the “open field locomotion per 5min bin (Fig S8A)” value (naive mice [2]; myr 50 sc, time bin 5)?
The value was 18.0979 and 18.5029 and 7.528 and 18.9529 and 21.6506 and 14.4427 and 14.0357.

What about the “open field locomotion per 5min bin (Fig S8A)” value (naive mice [2]; myr 50 sc, time bin 10) of the same compound?
Its value is 7.558 and 10.3984 and 2.952 and 12.1538 and 11.8366.

What about the “open field locomotion per 5min bin (Fig S8A)” value (naive mice [2]; myr 50 sc, time bin 35) of the same compound?
The value was 4.238 and 1.175 and 0.5656 and 5.236 and 7.164 and 13.3118 and 5.291.

And the “open field locomotion per 5min bin (Fig S8A)” value (naive mice [2]; myr 50 sc, time bin 40)?
The value was 1.639 and 8.588 and 1.093 and 4.076 and 7.194 and 14.7431 and 4.194.

And the “open field locomotion per 5min bin (Fig S8A)” value (naive mice [2]; myr 50 sc, time bin 45)?
Its value is 1.4137 and 3.876 and 1.161 and 4.905 and 5.068 and 11.8464 and 7.804.

What about the “open field locomotion per 5min bin (Fig S8A)” value (naive mice [2]; myr 50 sc, time bin 50) of the same compound?
Its value is 0.9835 and 5.464 and 0.5467 and 1.258 and 0.6955 and 8.558 and 8.666.

And the “open field locomotion per 5min bin (Fig S8A)” value (naive mice [2]; myr 50 sc, time bin 55)?
Its value is 1.533 and 3.196 and 1.532 and 1.249 and 4.7524 and 13.5785 and 1.184.

What about the “open field locomotion per 5min bin (Fig S8A)” value (naive mice [2]; myr 50 sc, time bin 60) of the same compound?
Its value is 1.079 and 3.0668 and 0.6715 and 10.3299 and 7.512 and 5.91 and 5.742.

What about the “total locomotion in open field, individual mice” value (naive mice [2]; s.c. 10 μmol/kg, 150 minutes) of the same compound?
Its value is 177.609 and 107.816 and 106.645 and 245.588 and 278.41 and 220.659 and 185.74 and 353.332 and 277.158 and 380.649 and 207.835.

And the “locomotor activity in open field” value (naive mice [2]; s.c. 30 or 50 μmol/kg)?
Its value is “did not show any significant effect on locomotor activity”.
